Results: patent publication EP1034782A1, “Treatment of depression by using compounds which elevate the intracellular sodium concentration” (Singer, Andrea, priority 1999, dated 2000)
pIC50: −log10 of the molar value.

What was measured:
[1] = system: human platelets; experiment: Measuring [Na^+]i with SBFI/AM fluorescence in platelets; type: cell-based; details: for [Na^+]i elevated from basal levels up to: highest concentration investigated: 50 µM hyperforin, 10 µM monensin, platelets, SBFI fluorescence
Procedure: Solutions: The Na^+-HEPES buffer consisted 10 mM HEPES, 1 mM MgSO4, 5 mM KH2PO4, 5 mM KCI and 5 mM Glucose (4). The pH of this buffer was adjusted to 6.5 with NH3 (for storage of platelets) and to 7.4 for the measurement of fluorescence. The K^+ solution was identical except for complete replacement of sodium by potassium.
Preparation of platelets and loading with SBFI/AM: Venous blood (10 ml) was anticoagulated by mixing it with 1.0 ml citrate solution in a S-Monovette. […] Platelet pellets were obtained from PRP by centifugation at 480 x g for 30 min at room temperature. The pellet was resuspended into Sodium-HEPES buffer, pH 6.5 at a final concentration of 3-4 x 10^8 cells/ml. […] Appropriate amounts of this solution were added to the platelets to yield a final concentration of SBFI/AM of 10 µM and platelets were incubated with the dye for 60 min at 37°C in a shaking water bath. Thereafter, platelets were again centrifuged at 480 x g for 30 min at RT. The supernatant was discarded and the platelets were taken up into sodium-HEPES buffer, pH 6.5 at a concentration of 3-4 x 10^9 cells/ml. The platelet suspension was then stored at RT until used for the fluorescence measurements.
Measurement of SBFI/AM Fluorescence: Aliquots of platelet suspension (4 µl) were added to 950 µl of the appropriate buffer. Fluorescence was measured in quartz cuvettes using a SLM-Aminco luminescence spectrometer before and after addition of the tested drugs. […] All measurements were performed without stirring at room temperature.

[2] = molecular target: T1, serotonin transporter (Mus musculus, UniProt Q60857); experiment: ^3H-paroxetine binding assay (mouse frontal cortex membranes)
T1 construct: from tissue; host or cells: frontal cortex of female NMRI mice (synaptosomes or membranes)
T1 sequence (Q60857 whole entry): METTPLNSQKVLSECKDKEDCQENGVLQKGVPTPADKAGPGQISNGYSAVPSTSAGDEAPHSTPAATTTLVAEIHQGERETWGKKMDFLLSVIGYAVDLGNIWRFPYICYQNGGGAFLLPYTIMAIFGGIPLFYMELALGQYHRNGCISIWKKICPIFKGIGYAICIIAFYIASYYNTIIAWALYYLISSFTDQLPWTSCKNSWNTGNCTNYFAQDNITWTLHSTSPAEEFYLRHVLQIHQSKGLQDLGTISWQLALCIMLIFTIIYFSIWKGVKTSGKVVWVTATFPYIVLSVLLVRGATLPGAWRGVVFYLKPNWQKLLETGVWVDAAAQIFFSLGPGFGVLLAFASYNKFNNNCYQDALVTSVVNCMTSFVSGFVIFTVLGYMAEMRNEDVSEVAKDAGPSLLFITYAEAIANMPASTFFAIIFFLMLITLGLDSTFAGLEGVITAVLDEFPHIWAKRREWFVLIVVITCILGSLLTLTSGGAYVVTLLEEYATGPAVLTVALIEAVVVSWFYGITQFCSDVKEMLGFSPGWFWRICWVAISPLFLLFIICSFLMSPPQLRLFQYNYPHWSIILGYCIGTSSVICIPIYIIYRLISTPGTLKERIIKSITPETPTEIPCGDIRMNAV
Procedure: Female NMRI mice were sacrified by decapitation. […] The homogenate was centrifuged for 10 min at 35000 x g at 4°C. The resulting pellet was resuspended in 40 volumes of buffer and recentrifuged. The pellet was resuspended in TRIS buffer at a protein concentration of 70 µg/ml. Aliquots of membrane suspension were incubated with ^3H-paroxetine (0.2 nM) at room temperature for 60 minutes. Incubation was terminated by rapid filtration through Whatman GF/B glass fiber filters with a Brandel Cell Harvester. […] The filters were washed 7 times with ice cold buffer, dried and the radioactivity was measured by liquid scintillation spectrometry.

[3] = molecular target: T1, serotonin transporter; experiment: Synaptosomal uptake of ^3H-serotonin (mouse cortex synaptosomes); type: cell-based
Procedure: Synaptosomal preparations from frontal cortex of female NMRI mice were used for serotonin uptake. The tissue was homogenized in ice cold sucrose solution (0.32 M) and diluted with 10 ml of the homogenizing medium. The nuclear fraction was eliminated by centrifugation at 750 x g for 10 min (Beckman Centrifuge, Model J2-21). […] The probes were cooled, immediately filtered through Whatman GF/B glass fiber filters and washed three times with ice cold buffer solution with a Brandel cell harvester. Filters were placed in plastic scintillation vials containing 4 ml Lumasafe scintillation cocktail (Packard). Radioactivity was measured after 12 hours. Nonspecific uptake was determined in parallel probes maintained throughout on ice or containing unlabelled serotonin (1mM serotonin).

[4] = molecular target: T1, serotonin transporter; experiment: Kinetic analyses of ^3H-serotonin uptake into mouse cortex synaptosomes; type: cell-based; details: hyperforin 2 µM, citalopram 1 nM, monensin concentration not given in the text
[5] = molecular target: T2, human serotonin transporter (Homo sapiens, UniProt P31645); experiment: ^3H-serotonin uptake in platelets; type: cell-based
T2 construct: Blood from normal unmedicated volunteers was anticoagulated; endogenous in cells; host or cells: human platelets from blood of unmedicated volunteers
T2 sequence (P31645 whole entry): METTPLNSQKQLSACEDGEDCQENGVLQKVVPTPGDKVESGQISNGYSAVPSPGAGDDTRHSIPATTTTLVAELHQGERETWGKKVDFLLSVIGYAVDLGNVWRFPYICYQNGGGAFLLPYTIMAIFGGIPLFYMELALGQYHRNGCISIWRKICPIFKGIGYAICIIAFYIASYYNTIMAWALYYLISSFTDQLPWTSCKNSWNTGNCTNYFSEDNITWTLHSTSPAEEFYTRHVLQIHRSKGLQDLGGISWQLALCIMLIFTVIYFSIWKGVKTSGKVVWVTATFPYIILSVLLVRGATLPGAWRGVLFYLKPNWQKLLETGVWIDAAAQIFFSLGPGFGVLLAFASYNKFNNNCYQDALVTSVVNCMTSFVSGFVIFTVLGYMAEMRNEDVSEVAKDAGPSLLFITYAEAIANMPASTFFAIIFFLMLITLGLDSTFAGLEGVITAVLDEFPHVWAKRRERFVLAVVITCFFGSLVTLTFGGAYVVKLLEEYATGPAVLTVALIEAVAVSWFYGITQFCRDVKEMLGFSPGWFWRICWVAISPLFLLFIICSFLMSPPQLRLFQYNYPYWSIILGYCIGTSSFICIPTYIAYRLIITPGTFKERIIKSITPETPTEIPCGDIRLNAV

[6] = system: norepinephrine; experiment: Synaptosomal uptake of norepinephrine; type: cell-based; details: unpublished observations
[7] = system: dopamine; experiment: Synaptosomal uptake of dopamine; type: cell-based; details: unpublished observations
[8] = system: GABA; experiment: Synaptosomal uptake of GABA; type: cell-based; details: unpublished observations
[9] = system: L-glutamate; experiment: Synaptosomal uptake of L-glutamate; type: cell-based; details: unpublished observations

## CC(C)=CCCC1(C)C(CC=C(C)C)CC2(CC=C(C)C)C(=O)C(CC=C(C)C)=C(O)C1(C(=O)C(C)C)C2=O (centres unmarked) [Hyperforin]
[1]; 50 µM hyperforin, human platelets
  Maximal elevation of [Na^+]i: about 70 mM
[1]
  [Na^+]i elevated from basal levels up to: 69,0 ± 16,1 mM
[1]; hyperforin, human platelets
  incubation time to maximal effect on [Na^+]i: ≤ 15 min

## CC[C@@]1([C@@H]2O[C@@H]([C@H]3O[C@@](O)(CO)[C@H](C)C[C@@H]3C)C[C@@H]2C)CC[C@H]([C@]2(C)CC[C@]3(C[C@H](O)[C@@H](C)[C@@H]([C@@H](C)[C@@H](OC)[C@H](C)C(=O)O)O3)O2)O1 [Monensin]
[2]
  pIC50: < 6.00
[3]
  pIC50: 7.32
[4]
  Vmax: 0,065 ± 0,009 pM/min/mg protein
[5]; inhibition of ^3H-serotonin uptake into human platelets, Table 3
  pIC50: 6.80
[5]; monensin 500 nM, human platelets
  inhibition at 0.5 µM: ~70%
[1]
  [Na^+]i elevated from basal levels up to: 140,0 ± 9,1 mM
[1]; monensin, human platelets
  incubation time to equilibration of [Na^+]i elevation: 15 min
[6]
  IC50 synaptosomal uptake of norepinephrine: nanomolar range
[7]
  IC50 synaptosomal uptake of dopamine: nanomolar range
[8]
  IC50 synaptosomal uptake of GABA: nanomolar range
[9]
  IC50 synaptosomal uptake of L-glutamate: nanomolar range
